Bridges are numbered along the chain shown (N, C = ends). Where no end group is shown, it is not given here.
Columns and labels:
[1] = tested on: Scedosporium inflatum (FSSP 7908 strain); assay: Scedosporium inflatum infected model (invasive scedosporiosis), continuous infusion by osmotic pumps; format: in vivo, mice; conditions: for 50% mortality, post-infection day: controls day 7
Method: Swiss OF1 mice weighing 22 g were infected by intravenous route (i.v.) with a lethal dose of Scedosporium inflatum (FSSP 7908 strain cultured on Malt Agar gelose for 7 days at 37° C.). The infecting dose was 7.10^6 spores per mouse, injected in a volume of 100 μl via the lateral tail vein.
Peptides pEM35 and pEM51 were administered continuously using ALZET 1003D osmotic pumps (flow rate: 0.97 μl/h; volume: 93 μl; infusion time: 4 days) and 1007D pumps (flow rate: 0.47 μl/h; volume: 100 μl; infusion time: 8 and half days) with intraperitoneal insertion
Groups of 8 infected mice were treated either with:
c) with pEM51 delivered i.p. by 1007D pumps at a dose of 30 mg/kg for 8 days, corresponding to a theoretical equilibrium plasma concentration of 0.3 μg/ml;
d) with pEM51 delivered i.p. by 1003D pumps at a dose of 60 mg/kg for 4 days, corresponding to a theoretical equilibrium plasma concentration of 0.6 μg/ml;
e) with pEM35 delivered i.p. by 1003D pumps at a dose of 35 mg/kg for 4 days, corresponding to a theoretical equilibrium plasma concentration of 0.35 μg/ml.
In this model of invasive scedosporiosis, inoculation of a dose of 7.10^6 spores of Scedosporium inflatum was 50% lethal on post-infection day 7. The first death occurred at 5 days and 6 days respectively after infection for the control mice group (infected, non-treated) and the placebo group (infected and with Alzet pumps). 100% mortality was observed on day 11 in the control group and 75% mortality on day 20 for the placebo group. The state of health of the mice deteriorated rapidly on and after post-infection day 3 with a morbidity score for these two groups of 28/40 and 34/40 on day 3 and 6/40 and 7/40 on post-infection day 7. Signs of encephalitis occurred on post-infection day 4.

A. fumigatus = format: cell-based; conditions: 48 h
Method: The antifungal activity was detected by a growth inhibition test in a liquid medium.
The filamentous fungi (A. fumigatus, A. flavus and A. terreus, donated by Dr. H. Koenig, Hôpital Civil, Strasbourg; and S. prolificans and F. solani donated by Drs. J. Meis and J. Mouton, University hospital, Microbioolgy Department, Nijmegen, Netherlands) were seeded on Malt-Agar slant gelose (Biomerieux) and incubated 7 days at 37° C.
The spores were then collected with 10 ml YPG medium containing 0.05% Tween 20 and filtered through a gauze. The spores were centrifuged 10 min at 1700 rpm, the residue was collected in YPG (1 g Yeast extract, 1 g Peptone, 3 g Glucose per 1 l).
The suspension was counted with a Coverslide and adjusted to 10^4 spores/ml.
100 μl of peptide dilutions (concentration of 50 with 0.097 μg/ml peptide) were deposited in microtitration plates. 100 μl with 10^4 spores/ml of filamentous fungi, i.e. 1000 spores, were then added.
The test plates were incubated 48 h at 37° C.
Determination of minimum inhibiting concentrations (MIC) was made by observing well cover rate. The MIC score was set at 50% well covering.

C. albicans = format: cell-based, Candida albicans; conditions: 24 h
Method: (§1) Candida yeasts (C. albicans, C. glabrata, C. dubliensis, C. tropicalis, C. kefyr, C. krusei and C. parapsilosis—donated by Dr. H. Koenig, Hôpital Civil, Strasbourg), fluconazole-resistant C. albicans (n^o245962, n^o2332, n^o246335 and n^o3552, donated by Drs. J.Meis and J. Mouton, University Hospital, Microbiology Department, Nijmegen, Netherlands), and Cryptoccocus neoformans (donated by Dr. H. Koenig, Hôpital Civil, Strasbourg) were seeded on Sabouraud-Cloramphenicol Agar slant gelose (Biomerieux) and left to incubate for 24 h at 30° C. (Candida sp.) and for 72 h at 37° C. (Cryptoccocus neoformans).
(§2) Some yeast colonies were placed in suspension in liquid Sabouraud medium (Biomerieux) to obtain a final concentration of 0.1 OD at 600 nm corresponding to 2.5.10^6 yeasts/ml.
(§3) The yeast suspension was adjusted to 5.10^3 yeast/ml in Sabouraud medium.
(§4) 100 μl of peptide dilutions (concentration of 50 with 0.097 μg/ml peptide) were deposited in microtitration plates. After adding […] of yeast suspension with 5.10^3 yeast/ml i.e. 500 yeasts, the test plates were incubated 24 h at 30° C. (Candida) under slow shaking or 72 h at 37° C. (Cryptoccocus).
(§5) Determination of minimal inhibiting concentrations (MIC) was made by measuring absorbency at 600 nm using a spectrophotometer-microtitration plate reader. The MIC score was set at a growth inhibition rate of 50%.

C. glabrata = format: cell-based
Method: as §1, §2, §3, §4, §5

Cryptoccocus neoformans = format: cell-based; conditions: 72 h
Method: as §1, §2, §3, §4, §5

C. kefyr = format: cell-based
Method: as §1, §2, §3, §4, §5

C. tropicalis = format: cell-based
Method: as §1, §2, §3, §4, §5

C. krusei = format: cell-based
Method: as §1, §2, §3, §4, §5

[2] = Acute toxicity study in mice; format: in vivo; conditions: for acute toxicity: mice, intravenous, in 0.9% NaCl, injections of 30 mg/kg repeated at 30-minute intervals, 3 times daily for 3 days
Method: […] The peptides were solubilised in a 0.9% NaCl solution; the injected volume was 150 μl injected in 45 seconds via the lateral tail vein.

C. dubliensis = format: cell-based
Method: as §1, §2, §3, §4, §5

C. parapsilosis = format: cell-based
Method: as §1, §2, §3, §4, §5

[3] = tested on: fluconazole-resistant C. albicans; assay: microbe, parasite or virus in culture; format: cell-based, Candida albicans; conditions: fluconazole-resistant
Method: as §1, §2, §3, §4, §5

## DKLIGSCVWGAVNYTSNCNAECKRRGYKGGHCGSFLNVNCWCET (disulfide 7-32, 18-40, 22-42 (inferred)) [pEM35]
[1]; 35 mg/kg for 4 days i.p. by 1003D pumps
  delay of onset of the first death: 5 days
[1]; 35 mg/kg for 4 days i.p. pumps
  delay of 50% mortality relative to control and placebo groups: 8 days
  mice alive on day 20 (out of 8): 1 mouse
  morbidity score post-infection day 5: 28/40
  morbidity score post-infection day 15: 8/40
  50% mortality, post-infection day: 15 days
A. fumigatus
  MIC: 6.25 µg/mL
C. albicans
  MIC: 1.56 µg/mL
C. glabrata
  MIC: >25 µg/mL
Cryptoccocus neoformans
  MIC: 6.25 µg/mL
C. kefyr
  MIC: >25 µg/mL
C. tropicalis
  MIC: 1.56 µg/mL
C. krusei
  MIC: 1.56 µg/mL
[2]
  acute toxicity: no acute toxicity was observed
[2]; single i.v. dose 200 mg/kg
  delayed growth (weight) on the day after the injection: approximately 1 g
[2]; single i.v. dose 400 mg/kg
  delayed growth (weight) on the day after the injection: approximately 1 g

## DKLIGSCVWGAVNYTSNCNAECKRRGYKGGHCGSFLNVNCWCQT (disulfide 7-32, 18-40, 22-42 (inferred)) [pEM46]
A. fumigatus
  MIC: 3.125 µg/mL
C. dubliensis
  MIC: 3.125 µg/mL
C. glabrata
  MIC: >25 µg/mL
C. parapsilosis
  MIC: 0.78 µg/mL
Cryptoccocus neoformans
  MIC: 6.25 µg/mL
C. kefyr
  MIC: >25 µg/mL
C. tropicalis
  MIC: 3.125 µg/mL
C. krusei
  MIC: 1.56 µg/mL

## DKLIGSCVWGAVNYTSNCRAECKRRGYKGGHCGSFANVNCWCET (disulfide 7-32, 18-40, 22-42 (inferred)) [pEM51]
[3]
  MIC: 1.56 µg/mL
[1]; 30 mg/kg for 8 days
  therapeutic efficacy in terms of survival: very good therapeutic efficacy
[1]; 30 mg/kg for 8 days i.p. by 1007D pumps, 7.10^6 spores i.v., 8 mice
  delay of onset of the first death: 9 days
[1]; 30 mg/kg for 8 days i.p. pumps
  mice alive on day 20 (out of 8): 5 mice
  morbidity score post-infection day 5 until day 14: 24/40
  morbidity score post-infection day 20: 11/40
[1]; 30 mg/kg for 8 days i.p. pumps, 40 = all 8 mice healthy
  morbidity score post-infection day 4: 28/40
[1]; 60 mg/kg for 4 days i.p. by 1003D pumps
  delay of onset of the first death: 4 days
[1]; 60 mg/kg for 4 days i.p. pumps
  delay of 50% mortality in relation to control and placebo groups: 5 days
  mice alive on day 20 (out of 8): 3 mice
  morbidity score post-infection day 5: 30/40
  morbidity score post-infection day 14: 6/40
  50% mortality, post-infection day: 12 days
C. glabrata
  MIC: >25 µg/mL
Cryptoccocus neoformans
  MIC: 1.56 µg/mL
C. kefyr
  MIC: >25 µg/mL
C. tropicalis
  MIC: 3.125 µg/mL
C. krusei
  MIC: 1.56 µg/mL
[2]
  acute toxicity: no acute toxicity was observed
[2]; single i.v. dose 200 mg/kg
  delayed growth (weight) on the day after the injection: approximately 1 g
[2]; single i.v. dose 300 mg/kg
  delayed growth (weight) on the day after the injection: approximately 1 g
[2]; single i.v. dose 400 mg/kg
  delayed growth (weight) on the day after the injection: approximately 2 g

## DKLIGSCVWGAVNYTSNCNAECKRRGYKGGHCGSFANVNCWCQT (disulfide 7-32, 18-40, 22-42 (inferred)) [pEM31]
C. dubliensis
  MIC: 6.25 µg/mL
C. glabrata
  MIC: >25 µg/mL
C. parapsilosis
  MIC: 1.56 µg/mL
Cryptoccocus neoformans
  MIC: 12.5 µg/mL
C. kefyr
  MIC: >25 µg/mL
C. tropicalis
  MIC: 6.25 µg/mL
C. krusei
  MIC: 3.125 µg/mL

— patent US20030208035A1, “Antifungal and/or antibacterial peptides, preparation methods, compositions containing same and methods of treating mammals and/or plants” (priority 2000, published 2003)
